Laboratory results from patent publication US20240391885A1, “FORMS OF LINERIXIBAT” (GLAXOSMITHKLINE INTELLECTUAL PROPERTY (NO. 2) LIMITED, priority 2020, published 2024).
Values after ≈ are worked out from the molar mass of the structure shown.

Legend:
[1] = Miniaturised shake flask solubility in Britton-Robinson buffers and biorelevant media (Experiment 8c); type: physicochemical; conditions: 37° C., 1, 4 and 24 hours; FIG. 25
Method: Solubility of Form I and Form III was also measured in Britton-Robinson buffers (pH 2-8), determined and compared using a standardised miniaturised shake flask method via an automated platform using a development HPLC method for quantification post centrifugation and filtration. Samples were run at 37° C. and performed as 2 replicate preparations for each pH condition and 4 replicate preparations for each biorelevant media condition at 1, 4 and 24 hours.

[2] = Solubility of linerixibat drug substance over pH 1.2-6.8 at 37±1° C. (Experiment 8a); type: physicochemical
Method: The solubility of linerixibat drug substance, in respect of Form I and Form III, was determined over the pH range of 1.2-6.8 at 37±1° C. Eight pH values within this range, including buffers at pH 1.2, 4.5 and 6.8 were evaluated. The therapeutic dose for linerixibat is 40 mg.
• SGF=simulated gastric fluid • BR=Britton Robinson

[3] = Solubility of drug substance samples in biorelevant media and sodium acetate buffer (Experiment 8b); type: physicochemical
From the text: Solubility data was obtained for drug substance samples of linerixibat Form I, linerixibat Form III, and additionally for a sample of Form I compressed to 100 MPa which therefore contained an amount of Form III, in order to replicate typical forces encountered during tablet manufacture.
The media used for the drug substance samples were biorelevant media likely to be experienced in the stomach and the intestine, namely Simulated Gastric Fluid (SGF) over an increasing pH range (1.6, 2.0 and 4.0) and Fasted State Simulated Intestinal Fluid (FaSSIF) at a pH of 6.5. Solubility data was also obtained in 50 mM sodium acetate buffer pH 4.5.

[4] = Storage stability of drug substance by HPLC, XRPD and SSNMR; type: physicochemical; conditions: 1 month of storage at 50° C./ambient RH
[5] = Systemic absorption of linerixibat; conditions: in vivo
[6] = Dissolution of linerixibat tablets (USP <711> Apparatus II); type: physicochemical; conditions: at both gastric and intestinal pH (pH 1.2 and pH 6.8)
Method: The dissolution procedure developed for Linerixibat Tablets, 40 mg, is determined as directed in USP<711> and the method parameters are presented in Table G. The percentage of dissolved drug is currently determined by gradient reversed-phase HPLC.
The above dissolution method at pH 6.8 was applied to two batches of Linerixibat Tablets, 40 mg and the profiles obtained are shown in FIG. 24.

CCCC[C@]1(CC)CS(=O)(=O)c2cc(CNC(CC(=O)O)CC(=O)O)c(OC)cc2[C@@H](c2ccccc2)N1 [Form III]
solubility comparison in biorelevant media [1]: very similar
solubility at 1 h ([2]; Britton Robinson buffer, 37 °C, pH 3.7, aqueous buffer, thermodynamic from solid, nominal pH 3.7, BR buffer, 1-hr timepoint): 104 µg/mL (≈ 190 µM)
solubility at 4 h ([2]; Britton Robinson buffer, 37 °C, pH 3.7, aqueous buffer, thermodynamic from solid, nominal pH 3.7, BR buffer, 4-hr timepoint): 121 µg/mL (≈ 221 µM)
solubility at 24 h ([2]; Britton Robinson buffer, 37 °C, pH 3.7, aqueous buffer, thermodynamic from solid, nominal pH 3.7, BR buffer, 24-hr timepoint): 129 µg/mL (≈ 236 µM)
solubility classification ([2]; all pHs in the physiological range except close to the solubility minimum (between pH 3.2 and pH 4.2), high solubility = above 0.16 mg/mL (40 mg in 250 mL)): highly soluble
Solubility ([2]; nominal pH 1.2, SGF, 37° C., 1-hr timepoint): >1000 µg/mL
Solubility ([2]; nominal pH 1.2, SGF, 37° C., 4-hr timepoint): >1000 µg/mL
Solubility ([2]; nominal pH 1.2, SGF, 37° C., 24-hr timepoint): >1000 µg/mL
Solubility ([2]; nominal pH 3.0, BR buffer, 37° C., 1-hr timepoint): 166 µg/mL (≈ 304 µM)
Solubility ([2]; nominal pH 3.0, BR buffer, 37° C., 4-hr timepoint): 205 µg/mL (≈ 375 µM)
Solubility ([2]; nominal pH 3.0, BR buffer, 37° C., 24-hr timepoint): 238 µg/mL (≈ 435 µM)
Solubility ([2]; nominal pH 3.5, BR buffer, 37° C., 1-hr timepoint): 103 µg/mL (≈ 188 µM)
Solubility ([2]; nominal pH 3.5, BR buffer, 37° C., 4-hr timepoint): 122 µg/mL (≈ 223 µM)
Solubility ([2]; nominal pH 3.5, BR buffer, 37° C., 24-hr timepoint): 130 µg/mL (≈ 238 µM)
Solubility ([2]; nominal pH 4.0, BR buffer, 37° C., 1-hr timepoint): 119 µg/mL (≈ 218 µM)
Solubility ([2]; nominal pH 4.0, BR buffer, 37° C., 4-hr timepoint): 137 µg/mL (≈ 251 µM)
Solubility ([2]; nominal pH 4.0, BR buffer, 37° C., 24-hr timepoint): 147 µg/mL (≈ 269 µM)
Solubility ([2]; nominal pH 4.5, Acetate buffer, 37° C., 1-hr timepoint): 199 µg/mL (≈ 364 µM)
Solubility ([2]; nominal pH 4.5, Acetate buffer, 37° C., 4-hr timepoint): 252 µg/mL (≈ 461 µM)
Solubility ([2]; nominal pH 4.5, Acetate buffer, 37° C., 24-hr timepoint): 310 µg/mL (≈ 567 µM)
Solubility ([2]; nominal pH 5.0, BR buffer, 37° C., 1-hr timepoint): 342 µg/mL (≈ 626 µM)
Solubility ([2]; nominal pH 5.0, BR buffer, 37° C., 4-hr timepoint): 466 µg/mL (≈ 852 µM)
Solubility ([2]; nominal pH 5.0, BR buffer, 37° C., 24-hr timepoint): 620 µg/mL (≈ 1130 µM)
Solubility ([2]; nominal pH 6.8, Phosphate buffer, 37° C., 1-hr timepoint): >1000 µg/mL
Solubility ([2]; nominal pH 6.8, Phosphate buffer, 37° C., 4-hr timepoint): >1000 µg/mL
Solubility ([2]; nominal pH 6.8, Phosphate buffer, 37° C., 24-hr timepoint): >1000 µg/mL
difference in solubility between Form I and Form III ([2]; pH 1.2-6.8, 37±1° C.): no significant difference
Solubility ([3]; 50 mM Sodium Acetate Buffer pH 4.5, 1 Hour, listed as Form 3): 290 µg/mL (≈ 530 µM)
Solubility ([3]; 50 mM Sodium Acetate Buffer pH 4.5, 4 Hours, listed as Form 3): 290 µg/mL (≈ 530 µM)
Solubility ([3]; 50 mM Sodium Acetate Buffer pH 4.5, 24 Hours, listed as Form 3): 280 µg/mL (≈ 512 µM)
Solubility ([3]; FaSSIF pH 6.5, 1 Hour, listed as Form 3): 5200 µg/mL (≈ 9510 µM)
Solubility ([3]; FaSSIF pH 6.5, 4 Hours, listed as Form 3): 5310 µg/mL (≈ 9710 µM)
Solubility ([3]; FaSSIF pH 6.5, 24 Hours, listed as Form 3): 5320 µg/mL (≈ 9730 µM)
Solubility ([3]; SGF pH 1.6, 1 Hour, listed as Form 3): 7540 µg/mL (≈ 13800 µM)
Solubility ([3]; SGF pH 1.6, 4 Hours, listed as Form 3): 7900 µg/mL (≈ 14500 µM)
Solubility ([3]; SGF pH 1.6, 24 Hours, listed as Form 3): 8620 µg/mL (≈ 15800 µM)
Solubility ([3]; SGF pH 2.0, 1 Hour): 1490 µg/mL (≈ 2730 µM)
Solubility ([3]; SGF pH 2.0, 4 Hours, listed as Form 3): 1580 µg/mL (≈ 2890 µM)
Solubility ([3]; SGF pH 2.0, 24 Hours, listed as Form 3): 1700 µg/mL (≈ 3110 µM)
Solubility ([3]; SGF pH 4.0, 1 Hour, listed as Form 3): 160 µg/mL (≈ 293 µM)
Solubility ([3]; SGF pH 4.0, 4 Hours, listed as Form 3): 170 µg/mL (≈ 311 µM)
Solubility ([3]; SGF pH 4.0, 24 Hours, listed as Form 3): 190 µg/mL (≈ 348 µM)
solubility comparison of the forms ([3]; all investigated physiologically relevant pH values (1.6 to 6.5)): Forms I and III have very similar solubilities at all investigated physiologically
change of form or drug-related impurity content [4]: Laboratory isolated Form III drug substance demonstrated no change in form

CCCC[C@]1(CC)CS(=O)(=O)c2cc(CNC(CC(=O)O)CC(=O)O)c(OC)cc2[C@@H](c2ccccc2)N1 [linerixibat, 3-({[(3R,5R)-3-butyl-3-ethyl-7-(methyloxy)-1,1-dioxido-5-phenyl-2,3,4,5-tetrahydro-1,4-benzothiazepin-8-yl]methyl}amino)pentanedioic acid]
systemic absorption [5]: minimal systemic absorption
Solubility ([2]; buffer, 37 °C, pH 1.2, simulated gastric fluid, thermodynamic from solid, pH 1.2 (gastric pH), read-out: solubility): > 1000 µg/mL
Solubility ([2]; buffer, 37 °C, pH 6.8, aqueous buffer, thermodynamic from solid, pH 6.8 (intestinal pH), read-out: solubility): > 1000 µg/mL
time to full release [6]: 5 min
